The nature of data set [1]: Dissolution of salts of cisapride in artificial gastric juice. Format: physicochemical.
A short description of data set [2]: Dissolution of tablets at different pH-values, USP test <711>, USP-2 dissolution apparatus (paddle). Format: physicochemical. Particulars: conclusion in words. The method, then:
The dissolution of tablets comprising cisapride-(L)-tartrate having the composition and prepared as described in Example 1 was compared with tablets comprising cisapride monohydrate instead of cisapride-(L)-tartrate (the rest of the composition and the preparation being the same) at different pH-values.
The test tablet was brought in a glass container containing 900 ml of the specified buffer at a temperature of 37 °C. The stirring is performed by a paddle at a rotational speed of 50 rpm (rotations per minute). This test is s set forth in USP test <711> in a USP-2 dissolution apparatus. This latter test is described in US Pharmacopeia XXII, pp 1578-1579. a) pH = ± 1.5 (HCl : 0.1 N)

A short description of data set [3]: clinical. Particulars: in vivo; for tmax: po. How it is done:
A standard breakfast consists of four slices of bread, one slice of ham, one slice of cheese, butter, jelly and two cups of coffee or tea with if desired milk and/or sugar, was served. […] Thereafter, subjects could resume their usual diet.
The trial medication was taken with 100 ml water.
Blood samples were taken until 48 h post-dosing.
AUClast area under the plasma concentration-time curve from time 0 to the last time point (last quantifiable concentration, calculated by linear trapezoidal summation. AUC∞ area under the plasma concentration-time extrapolated to infinity t½term terminal half-life, defined as 0.693/Sz

For data set [4] the following is noted: human, in vivo. The text has this:
(AUC is the abbreviation of Area Under the Curve, which is an indication of the amount of active ingredient that is present in the blood).

The conditions of data set [5]: formulations containing cisapride-(L)-tartrate release cisapride in a racemic form; cited from earlier work.

Regarding `COc1cc(N)c(Cl)cc1C(=O)NC1CCN(CCCOc2ccc(F)cc2)CC1OC` (racemic) [cisapride-(L)-tartrate], the “dissolution in artificial gastric juice” value in data set [1] (compared with other salts of cisapride) is given as “better dissolution”. The results for the “dissolution compared with cisapride monohydrate” value in data set [2] (0.1 N HCl (pH = ± 1.5)), in data set [2] (pH 4.5) and in data set [2] (pH = 6.5) were “comparable”, “clearly better” and “clearly superior”, respectively. For the same molecule, the tmax in data set [3] (human) stood at 2.1 ± 0.7 h; in data set [3] (human, tmax), 1.4 ± 0.4 h. For the same molecule, the “bioequivalence of the tartrate and monohydrate formulations” value in data set [3] is recorded as “bioequivalent”. Moreover, the “bioequivalence with respect to the total exposure (AUC∞)” value in data set [3] is listed as “bioequivalence is demonstrated”. In addition, in data set [3], the “influence of fed or fasting conditions on absorption, peak levels and total exposure” value is “little influence”.
As to `COc1cc(N)c(Cl)cc1C(=O)N[C@H]1CCN(CCCOc2ccc(F)cc2)C[C@H]1OC` (relative stereo) [cisapride monohydrate, cis-4-amino-5-chloro-N-[1-[3-(4-fluorophenoxy)propyl]-3-methoxy-4-piperidinyl]-2-methoxybenzamide, reference compound], the “ratio of AUC in fed state over AUC in fasted state” value in data set [4] was “about 1.35”. For the same molecule, in data set [3] (human), the “higher exposure of cisapride in comparison with the fasting conditions” value is 29%, the “higher peak levels of cisapride in comparison with the fasting conditions” value was 33% and the tmax came to 2.3 ± 0.6 h. The molecule also displayed a tmax in data set [3] (human, tmax) of 1.7 ± 0.5 h. Further, the “bioequivalence of the tartrate and monohydrate formulations” value in data set [3] is “bioequivalent”.
With (-)-cisapride-(L)-tartrate, in data set [5], the “dissolution rates of the diastereomeric salt forms” value is reported as “equal dissolution rates”.
Consider (+)-cisapride-(L)-tartrate, for which the “dissolution rates of the diastereomeric salt forms” value in data set [5] is recorded as “equal dissolution rates”.
`COc1cc(N)c(Cl)cc1C(=O)NC1CCN(CCCOc2ccc(F)cc2)CC1OC` (racemic) [reference compound]: in data set [1] (salt forms of cisapride), the “dissolution compared with cisapride monohydrate” value is “dissolve slower than the cisapride monohydrate itself”.
